Reference: publication PMC7587356, “High-Throughput Screening for Inhibitors of the SARS-CoV-2 Protease Using a FRET-Biosensor” (Molecules, 2020)
Counter-ions that a name gives are not always drawn. Like-named read-outs stand apart in the source and are kept apart here.

Target: SARS-CoV-2 3CLpro (Severe acute respiratory syndrome coronavirus 2, UniProt P0DTD1)
Assay: biochemical
Assay type: biochemical
Parameters: Replicate_1 / Replicate_2 / mean / mean (LOPAC_screen_w_protease): unit not given here
Conditions: for inhibition at 5 µM: 4 h
[1] = sheet LOPAC_screen_w_protease, LOPAC1280 primary screen at 5 µM, with protease, mean of the two replicates, read-out: mean
[2] = sheet LOPAC_screen_w_protease, LOPAC1280 primary screen at 5 µM, with protease, replicate 1, read-out: Replicate_1
[3] = sheet LOPAC_screen_w_protease, LOPAC1280 primary screen at 5 µM, with protease, replicate 2, read-out: Replicate_2
[4] = sheet LOPAC_screen_w_protease, primary screen with protease, compound at 5 µM, mean of two replicates
[5] = sheet LOPAC_screen_w_protease, primary screen with protease, compound at 5 µM, replicate 1
[6] = sheet LOPAC_screen_w_protease, primary screen with protease, compound at 5 µM, replicate 2
[7] = sheet LOPAC_screen_w_protease, primary screen of LOPAC1280 at 5 µM with protease, mean of the two replicates
[8] = sheet LOPAC_screen_w_protease, primary screen of LOPAC1280 at 5 µM with protease, replicate 1
[9] = sheet LOPAC_screen_w_protease, primary screen of LOPAC1280 at 5 µM with protease, replicate 2
[10] = sheet LOPAC_screen_w_protease, LOPAC1280 primary screen with protease, 5 µM compound, mean of the two replicates
[11] = sheet LOPAC_screen_w_protease, LOPAC1280 primary screen with protease, 5 µM compound, replicate 1
[12] = sheet LOPAC_screen_w_protease, LOPAC1280 primary screen with protease, 5 µM compound, replicate 2
[13] = read-out: Replicate_1 (LOPAC_screen_w_protease)
[14] = read-out: Replicate_2 (LOPAC_screen_w_protease)
[15] = sheet LOPAC_screen_w_protease, primary screen of LOPAC1280 at 5 µM with protease, mean of the two replicates, read-out: mean
[16] = sheet LOPAC_screen_w_protease, primary screen of LOPAC1280 at 5 µM with protease, replicate 1, read-out: Replicate_1
[17] = sheet LOPAC_screen_w_protease, primary screen of LOPAC1280 at 5 µM with protease, replicate 2, read-out: Replicate_2
[18] = sheet LOPAC_screen_w_protease, primary screen with protease, 5 µM, mean of two replicates, read-out: mean
[19] = sheet LOPAC_screen_w_protease, primary screen with protease, 5 µM, replicate 1, read-out: Replicate_1
[20] = sheet LOPAC_screen_w_protease, primary screen with protease, 5 µM, replicate 2, read-out: Replicate_2
[21] = LOPAC1280 primary screen with protease, 5 µM compound, replicate 1
[22] = LOPAC1280 primary screen with protease, 5 µM compound, replicate 2
[23] = LOPAC1280 primary screen with protease, 5 µM compound, mean of two replicates
[24] = sheet LOPAC_screen_w_protease, primary screen with protease, 5 µM, mean of two replicates
[25] = sheet LOPAC_screen_w_protease, primary screen with protease, 5 µM, replicate 1
[26] = sheet LOPAC_screen_w_protease, primary screen with protease, 5 µM, replicate 2

SMILES: COc1ccc2c(c1)[C@@]13CCCC[C@H]1[C@@H](C2)NCC3.Cl [3-Methoxy-morphanin hydrochloride]
- Replicate_1: 3.105
- Replicate_2: 3.489
- mean: 3.297

SMILES: N=C(N)NCCC[C@H](N)C(=O)O [L-Arginine]
- inhibition at 5 µM [1]: 0.787%
- inhibition at 5 µM [2]: 3.1%
- inhibition at 5 µM [3]: -1.52%

SMILES: CNC(=O)[C@H]1O[C@@H](n2cnc3c(NCc4ccc(N)cc4)ncnc32)[C@H](O)[C@@H]1O [AB-MECA]
- mean [4]: 2.5809
- Replicate_1 [5]: 2.895
- Replicate_2 [6]: 2.266

SMILES: CC[C@@H]1Cc2cc(O)ccc2C2=C1c1ccc(O)cc1C[C@H]2CC
- mean [7]: 3.66
- Replicate_1 [8]: 4.43
- Replicate_2 [9]: 2.89

SMILES: N#CC(C#N)=Cc1ccc([N+](=O)[O-])c(O)c1 [Tyrphostin AG 126]
- mean (sheet LOPAC_screen_w_protease, primary screen with protease, mean of two replicates): 2.288
- Replicate_1 (sheet LOPAC_screen_w_protease, primary screen with protease, replicate 1): 2.273
- Replicate_2 (sheet LOPAC_screen_w_protease, primary screen with protease, replicate 2): 2.303

SMILES: CN(C)CCOC(C)(c1ccccc1)c1ccccn1 (stereo not drawn) [Doxylamine succinate]
- inhibition at 5 µM (sheet LOPAC_screen_w_protease, LOPAC1280 at 5 µM, mean of two replicates, read-out: mean): 1.3%
- inhibition at 5 µM (sheet LOPAC_screen_w_protease, LOPAC1280 at 5 µM, replicate 1, read-out: Replicate_1): 1.58%
- inhibition at 5 µM (sheet LOPAC_screen_w_protease, LOPAC1280 at 5 µM, replicate 2, read-out: Replicate_2): 1.01%

SMILES: Br.CCCN1CCc2cc(O)cc3c2[C@H]1Cc1ccc(O)c(O)c1-3
- mean (LOPAC screen with protease) (sheet LOPAC_screen_w_protease, primary screen at 5 µM, mean of two replicates): 94.9167
- Replicate_1 (LOPAC screen with protease) (sheet LOPAC_screen_w_protease, primary screen at 5 µM, replicate 1): 94.651
- Replicate_2 (LOPAC screen with protease) (sheet LOPAC_screen_w_protease, primary screen at 5 µM, replicate 2): 95.1824

SMILES: OC1(c2ccc(Cl)cc2)CCN(Cc2c[nH]c3ccccc23)CC1 [L-741,626]
- mean [10]: 4.28
- Replicate_1 [11]: 4.691
- Replicate_2 [12]: 3.869

SMILES: N#CC(=C(/N)Sc1ccccc1N)/C(C#N)=C(/N)Sc1ccccc1N [U0126]
- mean [4]: 2.655
- Replicate_1 [5]: 2.394
- Replicate_2 [6]: 2.916

SMILES: NC(=O)N1c2ccccc2C=Cc2ccccc21 [Carbamazepine]
- mean (LOPAC_screen_w_protease): 1.395
- inhibition at 5 µM [13]: 1.4%
- inhibition at 5 µM [14]: 1.39%

SMILES: CCCN1CCOC2c3cc(O)ccc3OCC21.Cl (racemic) [(±)-PD 128,907 hydrochloride]
- mean [7]: 3.436
- Replicate_1 [8]: 4.647
- Replicate_2 [9]: 2.226

SMILES: CC(C)(C)C1(O)CCN2CC3c4ccccc4CCc4cccc(c43)C2C1.Cl (racemic) [(±)-Butaclamol hydrochloride]
- Replicate_1: 4.433
- Replicate_2: 5.727
- mean: 5.08

SMILES: CCCn1c(=O)c2[nH]c(-c3ccc(OCC(=O)Nc4ccc(C#N)cc4)cc3)nc2n(CCC)c1=O [MRS 1754]
- inhibition at 5 µM [15]: 3.78%
- inhibition at 5 µM [16]: 1.48%
- inhibition at 5 µM [17]: 6.08%

SMILES: Cc1ccc(N(CC2=NCCN2)c2cccc(O)c2)cc1 [Phentolamine mesylate]
- inhibition at 5 µM [18]: -0.0499%
- inhibition at 5 µM [19]: -0.162%
- inhibition at 5 µM [20]: 0.062%

SMILES: COc1ccc(OC)c(C(O)C(C)N)c1 (stereo not drawn) [Methoxamine hydrochloride]
- inhibition at 5 µM [15]: 3.32%
- inhibition at 5 µM [16]: 2.74%
- inhibition at 5 µM [17]: 3.89%

SMILES: O=C(Nc1cccc(C(=O)Nc2ccc(S(=O)(=O)O)c3cc(S(=O)(=O)O)cc(S(=O)(=O)O)c23)c1)Nc1cccc(C(=O)Nc2ccc(S(=O)(=O)O)c3cc(S(=O)(=O)O)cc(S(=O)(=O)O)c23)c1 [NF 023, reference compound]
- mean [10]: 6.11
- Replicate_1 [11]: 5.845
- Replicate_2 [12]: 6.375

SMILES: Clc1ccc2c(c1)C(N1CCNCC1)=Nc1ccccc1O2 [Amoxapine]
- inhibition at 5 µM [15]: 3.27%
- inhibition at 5 µM [16]: 3.65%
- inhibition at 5 µM [17]: 2.89%

SMILES: O=C1C=CC(=O)C=C1 [p-Benzoquinone]
- mean (LOPAC_screen_w_protease) (LOPAC1280 primary screen with protease, 5 µM compound, mean of the two replicates): 2.118
- Replicate_1 (LOPAC_screen_w_protease) [21]: 1.8862
- Replicate_2 (LOPAC_screen_w_protease) [22]: 2.35

SMILES: NC(=O)c1ccccc1 [Benzamide]
- inhibition at 5 µM [1]: 0.755%
- inhibition at 5 µM [2]: 1.21%
- inhibition at 5 µM [3]: 0.297%

SMILES: Cl.Cl.Cn1cnc(CCN)c1 [1-Methylhistamine dihydrochloride]
- mean [10]: 4.368
- Replicate_1 [11]: 3.059
- Replicate_2 [12]: 5.677

SMILES: OC[C@H]1NC[C@H](O)[C@@H](O)[C@@H]1O [1-Deoxynojirimycin hydrochloride]
- inhibition at 5 µM (sheet LOPAC_screen_w_protease, primary screen with protease, compound at 5 µM, mean of two replicates, read-out: mean): 2.78%
- inhibition at 5 µM (sheet LOPAC_screen_w_protease, primary screen with protease, compound at 5 µM, replicate 1, read-out: Replicate_1): 4.02%
- inhibition at 5 µM (sheet LOPAC_screen_w_protease, primary screen with protease, compound at 5 µM, replicate 2, read-out: Replicate_2): 1.54%

SMILES: NC(CCP(=O)(O)O)C(=O)O (racemic) [(±)-2-Amino-4-phosphonobutyric acid]
- mean (sheet LOPAC_screen_w_protease, LOPAC1280 at 5 µM, mean of two replicates): 1.206
- Replicate_1 (sheet LOPAC_screen_w_protease, LOPAC1280 at 5 µM, replicate 1): 2.762
- Replicate_2 (sheet LOPAC_screen_w_protease, LOPAC1280 at 5 µM, replicate 2): -0.351

SMILES: CCN(CC)CCNC(=O)c1ccc(NC(C)=O)cc1.Cl [N-Acetylprocainamide hydrochloride]
- mean (LOPAC_screen_w_protease) [23]: 1.374
- Replicate_1 (LOPAC_screen_w_protease) [21]: 0.6051
- Replicate_2 (LOPAC_screen_w_protease) [22]: 2.1421

SMILES: CCCCCN(CCCCC)C(=O)C(CCC(=O)O)NC(=O)c1ccc(Cl)c(Cl)c1 (stereo not drawn) [Lorglumide sodium]
- inhibition at 5 µM [15]: 3.65%
- inhibition at 5 µM [16]: 2.9%
- inhibition at 5 µM [17]: 4.4%

SMILES: CC1CCCC=CC2CC(O)CC2C(O)C=CC(=O)O1 (stereo not drawn)
- mean (LOPAC_screen_w_protease) [23]: 1.348
- Replicate_1 (LOPAC_screen_w_protease) [21]: 0.7493
- Replicate_2 (LOPAC_screen_w_protease) [22]: 1.9466

SMILES: CC(C[N+](C)(C)C)OC(N)=O (stereo not drawn) [Bethanechol chloride]
- inhibition at 5 µM (LOPAC1280 primary screen with protease, 5 µM compound, replicate 1, read-out: Replicate_1 (LOPAC_screen_w_protease)): 0.465%
- inhibition at 5 µM (LOPAC1280 primary screen with protease, 5 µM compound, replicate 2, read-out: Replicate_2 (LOPAC_screen_w_protease)): 2.25%
- mean (LOPAC_screen_w_protease) [23]: 1.356

SMILES: CCCCCCCCCCCCC/C=C/[C@@H](O)[C@@H](N)CO [Sphingosine]
- inhibition at 5 µM [18]: -0.887%
- inhibition at 5 µM [19]: -1.81%
- inhibition at 5 µM [20]: 0.0317%

SMILES: CC(C)[C@H](CO)Nc1nc(Nc2cccc(Cl)c2)c2ncn(C(C)C)c2n1 [Purvalanol A]
- inhibition at 5 µM (sheet LOPAC_screen_w_protease, primary screen with protease, mean of two replicates, read-out: mean): 2.33%
- inhibition at 5 µM (sheet LOPAC_screen_w_protease, primary screen with protease, replicate 1, read-out: Replicate_1): 2.6%
- inhibition at 5 µM (sheet LOPAC_screen_w_protease, primary screen with protease, replicate 2, read-out: Replicate_2): 2.06%

SMILES: Clc1cccc(Cl)c1N=C1NCCN1 [Clonidine hydrochloride]
- mean (LOPAC_screen_w_protease): 1.822
- inhibition at 5 µM [13]: 1.42%
- inhibition at 5 µM [14]: 2.22%

SMILES: Cc1nc(N=Nc2cc(S(=O)(=O)[O-])c3cc([N+](=O)[O-])cc(S(=O)(=O)[O-])c3c2)c(COP(=O)([O-])[O-])c(C=O)c1O.[Na+].[Na+].[Na+].[Na+] [PPNDS tetrasodium]
- mean [10]: 5.708
- Replicate_1 [11]: 4.956
- Replicate_2 [12]: 6.46

SMILES: COC(=O)c1cc2c(cn1)[nH]c1ccccc12 [Methyl beta-carboline-3-carboxylate]
- mean [7]: 3.265
- Replicate_1 [8]: 4.868
- Replicate_2 [9]: 1.662

SMILES: CCCCc1oc2ccccc2c1C(=O)c1cc(I)c(OCCN(CC)CC)c(I)c1 [Amiodarone hydrochloride]
- inhibition at 5 µM (read-out: Replicate_1): 2.09%
- inhibition at 5 µM (read-out: Replicate_2): 4.04%
- inhibition at 5 µM (read-out: mean): 3.06%

SMILES: CN(C)c1ccc(/C=C2\C(=O)Nc3ccccc32)cc1 [SU 4312]
- mean [24]: 0.09243
- Replicate_1 [25]: 0.4934
- Replicate_2 [26]: -0.3085

SMILES: COc1cccc(-c2cc(=O)c3ccccc3o2)c1N [PD 98,059]
- Replicate_1: 3.541
- Replicate_2: 1.402
- mean: 2.471

SMILES: O=C(O)CCc1nc(-c2ccccc2)c(-c2ccccc2)o1 [Oxaprozin]
- inhibition at 5 µM (read-out: Replicate_1): 3.59%
- inhibition at 5 µM (read-out: Replicate_2): 3.25%
- inhibition at 5 µM (read-out: mean): 3.42%

SMILES: Brc1ccc([C@H]2CN3CCSC3=N2)cc1.O=C(O)C(=O)O [S(-)-p-Bromotetramisole oxalate]
- mean [24]: -0.07526
- Replicate_1 [25]: 0.5493
- Replicate_2 [26]: -0.6998
